Where two headings read alike, the source gives them in different places.
How the values were obtained:
post-menopausal women = assay: Patients leaving the study; type: in vivo
Description: 3. Patients leaving the study

postmenopausal women = conditions: cited from earlier work

With C[C@]12CC[C@@H]3c4ccc(O)cc4CC[C@H]3[C@@H]1[C@@H](O)[C@@H](O)[C@@H]2O [E4, 1,3,5 (10)-estratrien-3,15alpha,16alpha,17beta-tetrol] the “Number of patients leaving the study” value (post-menopausal women; 2.5 mg) was 9, the “Number of patients leaving the study” value (post-menopausal women; 5 mg) was 11 and the “Number of patients leaving the study” value (post-menopausal women; 10 mg) was 15. The “Number of patients leaving the study” value (post-menopausal women; 15 mg) was 8, the Endometrial thickness (postmenopausal women; 2 mg estetrol group) was “stable” and the “Mean number of hot flushes and sweating” value (postmenopausal women; 2 mg estetrol per day) was “decrease”. For the same compound, the Endometrial thickness (postmenopausal women; 10 mg estetrol group) was “increasing”.
